The record followed here is patent publication US11292803B2, “Bioreducible N-oxide-based probes for imaging of hypoxia” (THE BOARD OF TRUSTEES OF THE UNIVERSITY OF ILLINOIS, priority 2018, dated 2022).

The nature of series [1]: Photophysical characterization (absorbance, emission, extinction coefficient, quantum yield). In kind it is physicochemical. To be noted: for ΦF / ε / λabs / λem: measured in CHCl3 (Table 1). Here is the method:
Having established an effective synthetic route, attention was turned to the photophysical characterization of HyP-1 and red-HyP-1 (Table 1). HyP-1 has an absorbance maximum at 670 nm and corresponding emission maximum at 697 nm (FIG. 3a). The extinction coefficient (ε) and quantum yield (ΦF) were measured to be 1.5×10^4 cm^−1 M^−1 and 0.33 respectively. Red-HyP-1, on the other hand, has absorbance and emission maxima at 760 nm and 798 nm, respectively.
4-Aminoacetophenone was purchased from AK Scientific. Ethyl iodide, DIPEA, K2CO3, KOH, Na2SO4 and NH4OAc were purchased from Oakwood Chemicals. Benzaldehyde, BF3×OEt2, BIPY, DPI, DMSO, m-CPBA, nitroreductase and rat liver microsomes were purchased from Sigma Aldrich. Nitromethane was purchased from Alfa Aesar. Anaero-Indicators, AnaeroPacka anaerobic gas generators, acetonitrile, n-BuOH, CH2Cl2, EtOAc and Hexanes were purchased from Fisher Scientific. CDCl3 was purchased from Cambridge Isotopes Laboratory. Agarose LE was purchased from Gold Biotechnology. NADPH was purchased from EMD Millipore. All chemicals were used as purchased without further purification. Fluorinated ethylene propylene (FEP) tubing (wall thickness 0.01″, inner diameters 0.08″ and 0.12″) were purchased from McMaster-Carr. Thin-layer chromatography (TLC) was performed using glass-backed TLC plates coated with silica gel containing an UV254 fluorescent indicator (Macherey-Nagel). Flash chromatography was performed with 230-400 mesh silica gel P60 (SiliCycle Inc). UV-visible spectra were recorded on a Cary 60 spectrometer. Fluorescence spectra were recorded on a QuantaMaster-400 scanning spectrofluorometer using micro fluorescence quartz cuvettes (Science Outlet). NMR spectra were taken using Bruker or Varian 500 MHz spectrometers at 25° C. High-resolution mass spectra were acquired using Waters Q-Tof Ultima ESI and Waters Synapt G2-Si ESI/LC-MS spectrometers. Cellular imaging was performed using an EVOS FL cell imaging system. In vivo Fluorescence imaging was performed using an IVIS Spectrum CT live-animal imaging system (Perkin-Elmer, USA). PA imaging was performed using an Endra Nexus 128 photoacoustic tomography system (Ann Arbor, Mich., USA).

The subject of series [2] is CYP450-rich rat liver microsomes. Here is the method:
FIG. 4. […] (a) Representative PA image (770 nm) of reaction mixtures incubated under normoxic or hypoxic conditions for 2 h, then quenched with an equal volume of acetonitrile. Dashed lines indicate positioning of FEP tubes. (b) Change in PA signal (770 nm) produced after 2 h incubation of HyP-1 (10 μM) with rat liver microsomes (RLM) (200 μg/mL) and NADPH (50 μM) in normoxic and hypoxic conditions (n=3). (c) Ratiometric fluorescence turn-on after 2 h incubation of HyP-1 (2 μM) with RLM ([…]) and NADPH (50 μM) in normoxic or hypoxic conditions (n=3). (d) Normalized fluorescent turn-on after 1 h hypoxic incubation of HyP-1 (2 μM) with RLM (100 μg/mL) and NADPH (50 μM) under various conditions. Statistical significance represents a comparison to the hypoxic control (n=6). Results with error bars are represented as mean±SD. **p<0.01, ***p<0.001, ****p<0.0001.
The responsiveness of HyP-1 to hypoxia was first evaluated in vitro via fluorescence by incubating HyP-1 with CYP450-rich rat liver microsomes under atmospheric (normoxic) and oxygen-deprived (hypoxic) conditions. […] The PA response of HyP-1 under identical conditions was evaluated by quenching the reaction mixtures with an equal volume of acetonitrile and transferring the solutions into fluorinated ethylene propylene (FEP) tubes, which were inserted into the centre of a 2 cm thick agarose-based tissue-mimicking phantom.
For hypoxic assays only, cuvettes were sealed with septa, then evacuated and filled with N2 (×3) prior to use. Potassium phosphate buffer (0.1 M, pH 7.4) and NADPH (0.5 mM) were degassed with N2 for 30 minutes. For all assays, phosphate buffer (889 μL) rat liver microsomes (200 μg/mL) and HyP-1 (1 μL, 2 mM in DMSO) were added to the cuvette and pre-incubated at 37° C. for 5 minutes. NADPH (100 μL) was added and incubation continued with fluorescence spectra acquisition occurring at the indicated time points. Spectra were acquired according to the following parameters: λex=672, emission range=685-800 nm and λex=750, emission range=760-900 nm. For BIPY and DPI experiments, the compounds were added from stock solutions (1 M BIPY in DMSO and 50 mM DPI in deionized water) following the 5 minute preincubation, and the buffer volume was adjusted such that the total volume in the cuvette was equal to 1 mL. Deactivated microsomes were prepared by heating in a 45° C. water bath for 30 minutes.

Series [3] can be described thus: pH dependence of absorbance and emission spectra. The series is classed as physicochemical. To be noted: buffers pH 4.8 to 12.0. Here is the method: FIG. 13. (a) Absorbance and (b) fluorescence spectra of HyP-1 (2 μM) in 20 mM BRB buffers containing 50% v/v EtOH (pH range 4.8-12.0).
FIG. 14. (a) Absorbance and (b) fluorescence spectra of red-HyP-1 (2 μM) in 20 mM BRB buffers containing 50% v/v EtOH (pH range 4.8-12.0).
In addition to Fe(II), the response of HyP-1 to a variety of alkali, alkaline earth and transition metals was also determined. […] To further evaluate the stability of HyP-1, a 10 μM solution of the probe was exposed to ambient light and temperature for up to 5 days. Additionally, a 10 μM solution of HyP-1 supplemented with human plasma was incubated at 37° C. for 3 hours. […] As mentioned previously, a major limitation of 2-nitroimidazole-based hypoxia probes is their susceptibility to oxygen-independent reduction via two-electron processes, such as by bacterial nitroreductases. […] Finally, the photostability of both HyP-1 and red-HyP-1 was evaluated via continuous PA image acquisition at 770 nm over the course of 1 hour.
0.1 M potassium phosphate buffer (pH 7.4) was prepared by combining stock solutions of KH2PO4 (1 M, 0.990 mL) and K2HPO4 (1 M, 4.010 mL) and diluting to a final volume of 50 mL. […] Fine adjustments to pH were made via addition of 0.1 M HCl or 0.1 M NaOH. pH values were determined using a Mettler-Toledo SevenCompact pH meter calibrated using pH 4.0, 7.0 and 10.0 standard buffers at 25° C.

SMILES strings stand for the structures.

For `CC[N+]([O-])(CC)c1ccc(-c2cc(-c3ccccc3)c3n2[B-](F)(F)[N+]2=C(c4ccc(OC)cc4)C=C(c4ccccc4)C2=N3)cc1` [HyP-1, 4-(5,5-difluoro-7-(4-methoxyphenyl)-1,9-diphenyl-5H-5λ^4,6λ^4-dipyrrolo[1,2-c:2′,1′-f][1,3,5,2]triazaborinin-3-yl)-N,N-diethylaniline oxide], in series [1], the absorbance maximum stood at 670 nm, the “decrease in quantum yield on conversion of HyP-1 to red-HyP-1” value is reported as 2.2 fold, the emission maximum was determined as 697 nm and the “extinction coefficient (ε)” value came to 15000 cm⁻¹ M⁻¹. Further, in series [1], the “increase in extinction coefficient on conversion of HyP-1 to red-HyP-1” value came to 3.6 fold, the “quantum yield (ΦF)” value came out at 0.33, the “shift in absorbance on conversion of HyP-1 to red-HyP-1” value worked out at 90 nm and the ΦF amounted to 0.33. In addition, in series [1], the ε was 1.4 × 10^4 M^−1 cm^1, the λabs is listed as 670 nm and the λem amounted to 697 nm. In series [2], the “conversion by heat-inactivated rat liver microsomes” value is given as “converted to red-HyP-1”. In addition, in series [3], the “pH dependence of absorbance and emission spectra” value was “no significant pH dependence”.

Regarding `CCN(CC)c1ccc(-c2cc(-c3ccccc3)c3n2[B-](F)(F)[N+]2=C(c4ccc(OC)cc4)C=C(c4ccccc4)C2=N3)cc1` [Red-HyP-1, 4-(5,5-difluoro-7-(4-methoxyphenyl)-1,9-diphenyl-5H-5λ^4,6λ^4-dipyrrolo[1,2-c:2′,1′-f][1,3,5,2]triazaborinin-3-yl)-N,N-diethylaniline], in series [1], the absorbance maximum is recorded as 760 nm, the emission maximum is 798 nm, the “extinction coefficient (ε)” value amounted to 54000 cm⁻¹ M⁻¹ and the “quantum yield (ΦF)” value amounted to 0.15. Also, in series [1], the ΦF was determined as 0.15, the ε is listed as 5.4 × 10^4 M^−1 cm^1, the λabs was 760 nm and the λem was found to be 798 nm. Also, the emission maximum in series [2] (authentic solution, as RLM reaction mixture (aqueous buffer)) is recorded as 785 nm. Further, the “pH dependence of absorbance and emission spectra” value in series [3] was “no significant pH dependence”.
